According to article PMC3242765, “Inhibitors of Alphavirus Entry and Replication Identified with a Stable Chikungunya Replicon Cell Line and Virus-Based Assays” (PLoS ONE, 2011):
Several values for one entry are separate records, joined by “and”; a condition that tells them apart may be missing. Equal entries are not always repeated. Structures can show the parent of a compound that is named as a salt.

How the values were obtained:
[1] = test system: CHIKV replicon; test: microbe, parasite or virus in culture; assay type: cell-based, Chikungunya virus (CHIKV)
[2] = test system: SFV-Rluc

Row | Compound | CHIKV replicon % left [1] | SFV replication % left (surviving fraction, remaining percentage of SFV replication) [2]
1 | Cl.Cl.OCCN1CCN(CCC=C2c3ccccc3Sc3ccc(Cl)cc32)CC1 [Clopenthixol dihydrochloride] | 40.1% | 55.2%
2 | CC(C)NCC(O)c1ccccc1Cl.Cl.O (stereo not shown) [Clorprenaline hydrochloride] | 102.2% | 63.7%
3 | CCCNc1ccc(C(=O)OCC(O)CN(C)C)cc1 (stereo not shown) [Cornecaine] | 80.5% | 77.3%
4 | CCN(CC)c1ccc2cc(-c3nc4ccccc4[nH]3)c(=O)oc2c1 [Coumarin 7] | 51.8% | 37.3%
5 | Cc1cc(=O)oc2c3c4c(cc12)CCCN4CCC3 [Coumarin 102] | 65.4% | 34.6%
6 | O=c1oc2c3c4c(cc2c2c1CCC2)CCCN4CCC3 [Coumarin 106] | 91.5% | 82.1%
7 | O=c1cc(C(F)(F)F)c2cc3c4c(c2o1)CCCN4CCC3 [Coumarin 153] | 96.1% | 52.6%
8 | O=c1ccc2ccccc2o1 [Coumarin] | 85.0% | 68.8%
9 | Oc1cc(O)c2cc(O)c(-c3ccc(O)c(O)c3)[o+]c2c1 [Cyanidin chloride] | 54.8% | 24.5%
10 | O=S(=O)(O)NC1CCCCC1 [Cyclamic acid] | 107.5% | 74.9%
11 | OCc1ccccc1O[C@@H]1O[C@H](CO)[C@@H](O)[C@H](O)[C@H]1O [D(-)-Salicin] | 99.4% | 104.4%
12 | O=c1c(-c2ccc(O)cc2)coc2cc(O)ccc12 [Daidzein] | 104.4% | 76.6%
13 | COc1ccc2ccc(=O)oc2c1O [Daphnetin-7-methylether] | 89.9% | 105.6%
14 | O=c1ccc2ccc(O)c(O)c2o1 [Daphnetin] | 103.7% and 92.1% | 90.6% and 81.7%
15 | C[C@H](CCC(=O)O)[C@H]1CC[C@H]2[C@@H]3CC[C@@H]4C[C@H](O)CC[C@]4(C)[C@H]3C[C@H](O)[C@]12C [Deoxycholic acid] | 100.8% | 86.5%
16 | Cc1cc(N)c2ccccc2[n+]1CCCCCCCCCC[n+]1c(C)cc(N)c2ccccc21 [Dequalinium chloride] | 39.4% | 62.5%
17 | NCCN1C(=O)CN=C(c2ccccc2F)c2cc(Cl)ccc21 [Desalkylflurazepam] | 74.3% | 68.5%
18 | CN(C)CC[C@@H](c1ccc(Br)cc1)c1ccccn1 [Dexbrompheniramine maleate] | 100.4% | 69.6%
19 | CN(C)CC[C@@H](c1ccc(Cl)cc1)c1ccccn1 [Dexchlorpheniramine maleate] | 51.7% | 68.1%
20 | CN1C(=O)CN=C(c2ccccc2)c2cc(Cl)ccc21 [Diazepam] | 84.0% | 73.6%
21 | CCCCOc1cc(C(=O)NCCN(CC)CC)c2ccccc2n1 [Dibucaine hydrochloride] | 100.5% | 77.8%
22 | CC(C)NCC(O)c1ccc(Cl)c(Cl)c1.Cl (stereo not shown) [Dichloroisoproterenol hydrochloride] | 69.2% | 49.6%
23 | O=c1oc2ccccc2c(O)c1Cc1c(O)c2ccccc2oc1=O [Dicumarol] | 43.0% | 65.6%
24 | CCN(CC)C(C)C(=O)c1ccccc1 (stereo not shown) [Diethylpropion hydrochloride] | 29.6% | 47.1%
25 | C[C@H]1O[C@@H](O[C@H]2[C@@H](O)C[C@H](O[C@H]3[C@@H](O)C[C@H](O[C@H]4CC[C@@]5(C)[C@H](CC[C@@H]6[C@@H]5C[C@@H](O)[C@]5(C)[C@@H](C7=CC(=O)OC7)CC[C@]65O)C4)O[C@@H]3C)O[C@@H]2C)C[C@H](O)[C@@H]1O [Digoxin] | 94.3% | 141.9%
26 | CN(C)CCOC(c1ccccc1)c1ccccc1 [Diphenhydramine hydrochloride] | 194.3% | 41.0%
27 | O=C1NC(=O)C(c2ccccc2)(c2ccccc2)N1 [Diphenylhydantoin [phenytoin]] | 78.1% | 66.3%

Row | Compound | CHIKV replicon % left [1] | SFV replication % left (surviving fraction, remaining percentage of SFV replication) [2]
28 | CN(C)CCC=C1c2ccccc2COc2ccccc21 [Doxepin hydrochloride] | 87.2% | 21.6%
29 | CCOc1ccc(NC(N)=O)cc1 [Dulcin [p-phenetylurea]] | 70.2% | 103.3%
30 | O=c1oc2c(O)c(O)cc3c(=O)oc4c(O)c(O)cc1c4c23 [Ellagic acid] | 71.1% | 64.9%
31 | CC[C@H]1CN2CCc3cc(OC)c(OC)cc3[C@@H]2C[C@@H]1C[C@H]1NCCc2cc(OC)c(OC)cc21 [Emetine dihydrochloride] | 80.9% | 63.1%
32 | O=c1ccc2cc(O)c(O)cc2o1 [Esculetin] | 89.2% | 103.6%
33 | O.O.O.O=c1ccc2cc(O[C@@H]3O[C@H](CO)[C@@H](O)[C@H](O)[C@H]3O)c(O)cc2o1.O=c1ccc2cc(O[C@@H]3O[C@H](CO)[C@@H](O)[C@H](O)[C@H]3O)c(O)cc2o1 [Esculin sesquihydrate] | 102.6% | 95.0%
34 | CCN(CC)C(=O)c1ccc(O)c(OC)c1 [Ethamivan] | 43.1% | 85.5%
35 | CCN(CC)C(C)CN1c2ccccc2Sc2ccccc21 (stereo not shown) [Ethopropazine hydrochloride] | 59.8% | 20.1%
36 | CCOc1ccc2c(c1)C(C)=CC(C)(C)N2 [Ethoxyquin] | 83.6% | 96.4%
37 | CCOC(=O)c1ccc(O)cc1 [Ethyl 4-hydroxybenzoate] | 94.4% | 127.8%
38 | CCC(N)C(O)c1ccc(O)c(O)c1 (stereo not shown) [Ethylnorepinephrine] | 104.3% | 126.8%
39 | CCNCC(O)c1cccc(O)c1 (stereo not shown) [Etilefrin] | 87.1% | 116.8%
40 | CC(C(=O)[O-])c1cccc(Oc2ccccc2)c1.CC(C(=O)[O-])c1cccc(Oc2ccccc2)c1.[Ca+2] (stereo not shown) [Fenoprofen calcium salt] | 78.3% | 87.6%
41 | CC(Cc1ccc(O)cc1)NCC(O)c1cc(O)cc(O)c1 (stereo not shown) [Fenoterol hydrobromide] | 88.4% | 106.6%
42 | COc1cc(/C=C/C(=O)O)ccc1O [Ferulic acid] | 55.8% | 63.4%
43 | O=c1cc(-c2ccccc2)oc2ccccc12 [Flavone] | 39.4% | 52.2%
44 | O=C(O)/C=C\C(=O)O.O=C(O)/C=C\C(=O)O.OCCN1CCN(CCCN2c3ccccc3Sc3ccc(C(F)(F)F)cc32)CC1 [Fluphenatzinemaleate] | 104.3% | 98.9%
45 | Nc1nc(=O)c2nc(CNc3ccc(C(=O)N[C@@H](CCC(=O)O)C(=O)O)cc3)cnc2[nH]1 [Folic acid] | 78.1% | 100.0%
46 | COc1cc2ccc(=O)oc2c(O)c1O [Fraxetin] | 95.4% | 103.6%
47 | COc1cc2ccc(=O)oc2c(O)c1OC [Fraxidin] | 104.3% | 77.8%
48 | O=C(O)c1cc(O)c(O)c(O)c1 [Gallic acid] | 88.9% | 148.8%
49 | O=c1c(-c2ccc(O)cc2)coc2cc(O)cc(O)c12 [Genistein] | 62.1% | 45.6%
50 | C[C@]12CC[C@H](O)C[C@H]1CC[C@@H]1[C@@H]2CC[C@]2(C)[C@@H](C3=CC(=O)OC3)[C@@H](O)C[C@]12O [Gitoxigenin] | 81.4% | 102.7%
51 | O=c1c(O)c(-c2ccc(O)c(O)c2)oc2c(O[C@@H]3O[C@H](CO)[C@@H](O)[C@H](O)[C@H]3O)c(O)cc(O)c12 [Gossypin] | 104.3% | 105.8%
52 | COc1ccccc1OCC(O)CO (stereo not shown) [Guaifenesin] | 82.7% | 124.5%
53 | O=C(OC[C@H]1OC(O)[C@@](O)(COC(=O)c2cc(O)c(O)c(O)c2)[C@@H]1O)c1cc(O)c(O)c(O)c1 (stereo partly shown) [Hamamelitannin] | 40.1% | 14.7%
